# Data taken from US10689354B2, “Aminoazole derivative” (Teijin Pharma Limited, priority 2015, dated 2020).
# Molecular target: T1, androgen receptor (AR-LBD) (Rattus norvegicus, UniProt P15207)
# T1 construct: 5 μL of 2×AR-LBD/Fluoromone AL Red Complex contained in the kit; purchased Invitrogen
# T1 sequence (P15207 651-882 limits assumed): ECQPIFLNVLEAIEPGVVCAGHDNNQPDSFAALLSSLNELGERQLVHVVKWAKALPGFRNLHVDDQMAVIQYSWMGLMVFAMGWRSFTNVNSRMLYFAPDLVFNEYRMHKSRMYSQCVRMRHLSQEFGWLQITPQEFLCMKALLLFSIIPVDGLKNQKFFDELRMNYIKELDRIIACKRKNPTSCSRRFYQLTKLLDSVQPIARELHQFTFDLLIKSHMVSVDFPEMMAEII
# Experiment: Evaluation of androgen receptor affinity (PolarScreen Androgen Receptor Competitor Assay Kit, Red; fluorescence polarization)
# Settings: 22° C. for 5 hours, relative to binding rate of 1 μM DHT, read-out: AR affinity (pEC50) (converted)
# Method: Evaluation of an Androgen Receptor Affinity
# To examine the interaction of a compound with an androgen receptor, evaluation was carried out in accordance with the following procedure using PolarScreen™ Androgen Receptor Competitor Assay Kit, Red (Invitrogen). To 2 wells each of a 384 well black plate was added 5 μL of the compound solution. To each well was added 5 μL of 2×AR-LBD/Fluoromone AL Red Complex contained in the kit and the samples were reacted at 22° C. for 5 hours. After 5 hours of the reaction, fluorescence polarization was measured and the affinity was evaluated. The affinity of the compound was determined by comparing to the binding rate of 1 μM of dihydrotestosterone (DHT), and quantified the logarithm value (pEC50) of reciprocal value of the effective concentration of the compound which is equal to 50% of the binding rate by applying a 4 parameter goodness-of-fit calculation.
row,SMILES,EC50 [nM]
1,"Cc1sc(N(CC(C)C)c2ccc(C#N)cc2)nc1C(=O)NS(C)(=O)=O [Compound 73, 2-(4-cyano-N-isobutyl-anilino)-5-methyl-N-methylsulfonyl-thiazole-4-carboxamide]",> 2000
2,"Cc1sc(N(CC(C)(C)C)c2ccc(C#N)cc2)nc1C(=O)NS(C)(=O)=O [Compound 74, 2-[4-cyano-N-(2,2-dimethylpropyl)anilino]-5-methyl-N-methylsulfonyl-thiazole-4-carboxamide]",> 2000
3,"CCC(c1ccccc1)N(c1ccc(C#N)cc1)c1nc(C(=O)NS(C)(=O)=O)c(C)s1 (stereo not drawn) [Compound 84, 2-[4-cyano-N-(1-phenylpropyl)anilino]-5-methyl-N-methylsulfonyl-thiazole-4-carboxamide]",> 2000
4,"Cc1sc(N(Cc2cccc3nonc23)c2ccc(C#N)cc2)nc1C(=O)NS(C)(=O)=O [Compound 92, 2-[N-(2,1,3-benzoxadiazol-4-ylmethyl)-4-cyano-anilino]-5-methyl-N-methylsulfonyl-thiazole-4-carboxamide]",158
5,"Cc1sc(N(Cc2ccccc2C(F)F)c2ccc(C#N)cc2)nc1C(=O)NS(C)(=O)=O [Compound 93, 2-[4-cyano-N-[[2-(difluoromethyl)phenyl]methyl]anilino]-5-methyl-N-methylsulfonyl-thiazole-4-carboxamide]",631
6,"CC(=O)c1cccc(CN(c2ccc(C#N)cc2)c2nc(C(=O)NS(C)(=O)=O)c(C)s2)c1 [Compound 95, 2-[N-[(3-acetylphenyl)methyl]-4-cyano-anilino]-5-methyl-N-methylsulfonyl-thiazole-4-carboxamide]",251
7,"Cc1cc(F)cc(CN(c2ccc(C#N)cc2)c2nc(C(=O)NS(C)(=O)=O)c(C)s2)c1 [Compound 98, 2-[4-cyano-N-[(3-fluoro-5-methyl-phenyl)methyl]anilino]-5-methyl-N-methylsulfonyl-thiazole-4-carboxamide]",39.8
8,"Cc1sc(N(Cc2ccccc2OC(F)(F)F)c2ccc(C#N)cc2)nc1C(=O)NS(C)(=O)=O [Compound 101, 2-[4-cyano-N-[[2-(trifluoromethoxy)phenyl]methyl]anilino]-5-methyl-N-methylsulfonyl-thiazole-4-carboxamide]",631
9,"Cc1sc(N(CC2CCCOC2)c2ccc(C#N)cc2)nc1C(=O)NS(C)(=O)=O (stereo not drawn) [Compound 120, 2-[4-cyano-N-(tetrahydropyran-3-ylmethyl)anilino]-5-methyl-N-methylsulfonyl-thiazole-4-carboxamide]",> 2000
10,"Cc1sc(N(CCc2ccccn2)c2ccc(C#N)cc2)nc1C(=O)NS(C)(=O)=O [Compound 130, 2-[4-cyano-N-[2-(2-pyridyl)ethyl]anilino]-5-methyl-N-methylsulfonyl-thiazole-4-carboxamide]",> 2000
11,"Cc1sc(N(CCc2cccnc2)c2ccc(C#N)cc2)nc1C(=O)NS(C)(=O)=O [Compound 134, 2-[4-cyano-N-[2-(3-pyridyl)ethyl]anilino]-5-methyl-N-methylsulfonyl-thiazole-4-carboxamide]",> 2000
12,"Cc1nc(CCN(c2ccc(C#N)cc2)c2nc(C(=O)NS(C)(=O)=O)c(C)s2)cs1 [Compound 135, 2-[4-cyano-N-[2-(2-methylthiazol-4-yl)ethyl]anilino]-5-methyl-N-methylsulfonyl-thiazole-4-carboxamide]",> 2000
13,"Cc1ncsc1CCN(c1ccc(C#N)cc1)c1nc(C(=O)NS(C)(=O)=O)c(C)s1 [Compound 136, 2-[4-cyano-N-[2-(4-methylthiazol-5-yl)ethyl]anilino]-5-methyl-N-methylsulfonyl-thiazole-4-carboxamide]",> 2000
14,"Cc1sc(N(CCN2CCCC2=O)c2ccc(C#N)cc2)nc1C(=O)NS(C)(=O)=O [Compound 137, 2-[4-cyano-N-[2-(2-oxopyrrolidin-1-yl)ethyl]anilino]-5-methyl-N-methylsulfonyl-thiazole-4-carboxamide]",> 2000
15,"Cc1sc(N(Cc2ccccc2)c2ccc(C#N)cc2Br)nc1C(=O)NS(C)(=O)=O [Compound 142, 2-(N-benzyl-2-bromo-4-cyano-anilino)-5-methyl-N-methylsulfonyl-thiazole-4-carboxamide]",631
16,"Cc1noc(C)c1CN(CCc1ccc(Cl)cc1)c1nc(C(=O)NS(C)(=O)=O)c(C)s1 [Compound 151, 2-[2-(4-chlorophenyl)ethyl-[(3,5-dimethylisoxazol-4-yl)methyl]amino]-5-methyl-N-methylsulfonyl-thiazole-4-carboxamide]",> 2000
17,"Cc1sc(N(CCc2c[nH]c3ccccc23)Cc2ccccc2)nc1C(=O)NS(C)(=O)=O [Compound 320, 2-[benzyl-[2-(1H-indol-3-yl)ethyl]amino]-5-methyl-N-methylsulfonyl-thiazole-4-carboxamide]",631

row,SMILES,EC50 [nM]
1,"Cc1sc(N(CCc2ccc(C(=O)OC(C)(C)C)cc2)Cc2ccccc2)nc1C(=O)NS(C)(=O)=O [Compound 327, tert-butyl 4-[2-[benzyl-[5-methyl-4-(methylsulfonylcarbamoyl)thiazol-2-yl]amino]ethyl]benzoate]",> 2000
2,"Cc1sc(N(CCc2ccc(C(=O)O)cc2)Cc2ccccc2)nc1C(=O)NS(C)(=O)=O [Compound 328, 4-[2-[benzyl-[5-methyl-4-(methylsulfonylcarbamoyl)thiazol-2-yl]amino]ethyl]benzoic acid]",> 2000
3,"Cc1sc(N(CCc2cccc(S(C)(=O)=O)c2)Cc2ccccc2)nc1C(=O)NS(C)(=O)=O [Compound 331, 2-[benzyl-[2-(3-methylsulfonylphenyl)ethyl]amino]-5-methyl-N-methylsulfonyl-thiazole-4-carboxamide]",> 2000
4,"Cc1sc(N(CCc2cccc(OC(F)(F)F)c2)Cc2ccccc2)nc1C(=O)NS(C)(=O)=O [Compound 332, 2-[benzyl-[2-[3-(trifluoromethoxy)phenyl]ethyl]amino]-5-methyl-N-methylsulfonyl-thiazole-4-carboxamide]",398
5,"Cc1sc(N(CCc2ccccn2)Cc2ccccc2)nc1C(=O)NS(C)(=O)=O [Compound 334, 2-[benzyl-[2-(2-pyridyl)ethyl]amino]-5-methyl-N-methylsulfonyl-thiazole-4-carboxamide]",> 2000
6,"Cc1sc(N(Cc2ccccc2)c2ccc3[nH]ccc3c2)nc1C(=O)NS(C)(=O)=O [Compound 336, 2-[benzyl(1H-indol-5-yl)amino]-5-methyl-N-methylsulfonyl-thiazole-4-carboxamide]",> 2000
7,"Cc1sc(N(Cc2ccccc2)c2cccc3c2ccn3C)nc1C(=O)NS(C)(=O)=O [Compound 337, 2-[benzyl-(1-methylindol-4-yl)amino]-5-methyl-N-methylsulfonyl-thiazole-4-carboxamide]",> 2000
8,"Cc1sc(N(Cc2ccccc2)c2ccc3c(ccn3C)c2)nc1C(=O)NS(C)(=O)=O [Compound 338, 2-[benzyl-(1-methylindole-5-yl]amino]-5-methyl-N-methylsulfonyl-thiazole-4-carboxamide]",> 2000
9,"Cc1sc(N(CC2CCCCO2)c2ccc(C#N)cc2)nc1C(=O)NS(C)(=O)=O (stereo not drawn) [Compound 345, 2-[4-cyano-N-(tetrahydropyran-2-ylmethyl)anilino]-5-methyl-N-methylsulfonyl-thiazole-4-carboxamide]",> 2000
10,"Cc1sc(N(CC2CCOCC2)c2ccc(C#N)cc2)nc1C(=O)NS(C)(=O)=O [Compound 346, 2-[4-cyano-N-(tetrahydropyran-4-ylmethyl)anilino]-5-methyl-N-methylsulfonyl-thiazole-4-carboxamide]",> 2000
11,"Cc1sc(N(CC2CCC(=O)CC2)c2ccc(C#N)cc2)nc1C(=O)NS(C)(=O)=O [Compound 350, 2-[4-cyano-N-[(4-oxocyclohexyl)methyl]anilino]-5-methyl-N-methylsulfonyl-thiazole-4-carboxamide]",> 2000
12,"Cc1sc(N(CC2CCC(N(C)C)CC2)c2ccc(C#N)cc2)nc1C(=O)NS(C)(=O)=O (stereo not drawn) [Compound 352, 2-[4-cyano-N-[[4-(dimethylamino)cyclohexyl]methyl]anilino]-5-methyl-N-methylsulfonyl-thiazole-4-carboxamide]",> 2000
13,"Cc1sc(N(C[C@H]2CC[C@@H](O)CC2)c2ccc(C#N)cc2)nc1C(=O)NS(C)(=O)=O [Compound 353, 2-[4-cyano-N-[(cis-4-hydroxycyclohexyl)methyl]anilino]-5-methyl-N-methylsulfonyl-thiazole-4-carboxamide]",> 2000
14,"Cc1sc(N(C[C@H]2CC[C@H](O)CC2)c2ccc(C#N)cc2)nc1C(=O)NS(C)(=O)=O [Compound 354, 2-[4-cyano-N-[(trans-4-hydroxycyclohexyl)methyl]anilino]-5-methyl-N-methylsulfonyl-thiazole-4-carboxamide]",> 2000
15,"Cc1sc(N(Cc2ccccc2CO)c2ccc(C#N)cc2)nc1C(=O)NS(C)(=O)=O [Compound 355, 2-[4-cyano-N-[[2-(hydroxymethyl)phenyl]methyl]anilino]-5-methyl-N-methylsulfonyl-thiazole-4-carboxamide]",501
16,"Cc1sc(N(Cc2ccc(CO)cc2)c2ccc(C#N)cc2)nc1C(=O)NS(C)(=O)=O [Compound 356, 2-[4-cyano-N-[[4-(hydroxymethyl)phenyl]methyl]anilino]-5-methyl-N-methylsulfonyl-thiazole-4-carboxamide]",631
